Measurements taken from ChEMBL document CHEMBL4000146, “Synthesis, antiplasmodial activity and mechanistic studies of pyrimidine-5-carbonitrile and quinoline hybrids” (Eur J Med Chem, 2015).
Active and inactive are the calls of the source. The calls are words filed in the database; no cut-off is given here.

Key:
Human orthopneumovirus = type: functional, cell-based; conditions: human respiratory syncytial virus, HeLa
Plasmodium falciparum [1] = assay: Resistance index, ratio of IC50 for chloroquine-resistant asexual intraerythrocytic stage of Plasmodium falciparum Dd2 to IC50 for chloroquine-sensitive asexual intraerythrocytic stage of Plasmodium falciparum NF54; type: functional
Coxsackievirus [2] = type: functional, cell-based; conditions: B4, HeLa
Influenza A virus [3] = assay: microbe, parasite or virus in culture; conditions: H1N1, MDCK
[4] = Cytotoxicity against african green monkey Vero cells assessed as alteration of normal cell morphology by microscopic analysis; type: cell-based; conditions: chlorocebus sabaeus
Heme [5] = assay: Binding affinity to monomeric heme (unknown origin) assessed as 1:1 stoichiometry for monomeric heme-compound complex at pH 7.5 by Job's plot analysis
Punta Toro virus = type: functional; conditions: Vero
Human betaherpesvirus 5 [6] = type: functional, cell-based; conditions: Human betaherpesvirus 5, Davis, HEL
Heme [7] = assay: Binding affinity to monomeric heme (unknown origin) assessed as 1:1 stoichiometry for monomeric heme-compound complex at pH 5.6 by Job's plot analysis
Plasmodium falciparum [8] = assay: microbe, parasite or virus in culture; conditions: Dd2
mu-oxodimeric heme = assay: Binding affinity to mu-oxo-heme (unknown origin) assessed as 1:1 stoichiometry for mu-oxo-heme-compound complex at pH 5.8 by Job's plot analysis
unidentified adenovirus = type: functional, cell-based; conditions: HEL
CCRF-CEM = assay: Cytotoxicity against human CEM cells assessed as inhibition of cell proliferation by Coulter counter analysis; type: cell-based
[9] = Cytotoxicity against human HeLa cells assessed as alteration of normal cell morphology by microscopic analysis; type: cell-based
Heme [10] = assay: Binding affinity to monomeric heme (unknown origin) assessed as 1:1 ratio of monomeric heme-compound complex at 0.24 mM by mass spectra analysis
Human alphaherpesvirus 1 [11] = type: functional, cell-based; conditions: Human alphaherpesvirus 1, KOS, HEL
Human betaherpesvirus 5 [12] = type: functional, cell-based; conditions: Human betaherpesvirus 5, AD169, HEL
[13] = Cytotoxicity against MDCK cells assessed as inhibition of cell viability by colorimetric formazan-based MTS assay; set-up: species or system Canis lupus familiaris; conditions: dog
Coxsackievirus [14] = type: functional; conditions: B4, Vero
Human alphaherpesvirus 3 [15] = type: functional, cell-based; conditions: Human alphaherpesvirus 3, strain Oka vaccine, HEL
[16] = Cytotoxicity against human HEL cells assessed as inhibition of cell viability by colorimetric formazan-based MTS assay
Plasmodium falciparum [17] = assay: Potency index, ratio of chloroquine IC50 to test compound IC50 for chloroquine-resistant asexual intraerythrocytic stage of Plasmodium falciparum Dd2; type: functional
[18] = Selectivity index, ratio of IC50 for human HeLa cells to IC50 for chloroquine-resistant asexual intraerythrocytic stage of Plasmodium falciparum Dd2; type: toxicity, cell-based; conditions: read-out: Ratio IC50
Human alphaherpesvirus 2 = type: functional, cell-based; conditions: Human alphaherpesvirus 2, G, HEL
[19] = Selectivity index, ratio of IC50 for human HeLa cells to IC50 for chloroquine-sensitive asexual intraerythrocytic stage of Plasmodium falciparum NF54; type: toxicity, cell-based; conditions: read-out: Ratio IC50
Human alphaherpesvirus 1 [20] = type: functional, cell-based; conditions: Human alphaherpesvirus 1, KOS, HEL; remark: listed apart in the source
Influenza A virus [21] = assay: microbe, parasite or virus in culture; conditions: H3N2, MDCK
Human alphaherpesvirus 3 [22] = type: functional, cell-based; conditions: Human alphaherpesvirus 3, 07-1, HEL
Influenza B virus = assay: microbe, parasite or virus in culture; conditions: MDCK
[23] = test system: Vesicular stomatitis virus; assay: microbe, parasite or virus in culture; conditions: HEL
[24] = Cytotoxicity against MDCK cells assessed as alteration of normal cell morphology by microscopic analysis; type: cell-based, Canis lupus familiaris; conditions: dog
[25] = test system: Vesicular stomatitis virus; assay: microbe, parasite or virus in culture; conditions: HeLa
L1210 = assay: Cytotoxicity against mouse L1210 cells assessed as inhibition of cell proliferation by Coulter counter analysis; type: cell-based
Human respirovirus 3 = type: functional; conditions: Human respirovirus 3, Vero
Plasmodium falciparum [26] = assay: microbe, parasite or virus in culture; conditions: NF54
Vaccinia virus = assay: microbe, parasite or virus in culture; conditions: Orthopoxvirus vaccinia, HEL
Sindbis virus = type: functional; conditions: Vero
[27] = Cytotoxicity against human HEL cells assessed as alteration of normal cell morphology by microscopic analysis; type: cell-based
HeLa = assay: Cytotoxicity against human HeLa cells assessed as inhibition of cell proliferation by Coulter counter analysis; type: cell-based
[28] = test system: Mammalian orthoreovirus 1; type: functional; conditions: Mammalian orthoreovirus 1, Vero

Row | SMILES | EC50 (Human orthopneumovirus) [µM] | Ratio IC50 (Plasmodium falciparum [1]) | EC50 (Coxsackievirus [2]) [µM] | EC50 (Influenza A virus [3]) [µM] | MCC [4] [µM] | EC50 (Punta Toro virus) [µM] | EC50 (Human betaherpesvirus 5 [6]) [µM] | IC50 (Plasmodium falciparum [8]) [nM] | EC50 (unidentified adenovirus) [µM] | IC50 (CCRF-CEM) [µM] | MCC [9] [µM] | EC50 (Human alphaherpesvirus 1 [11]) [µM] | EC50 (Human betaherpesvirus 5 [12]) [µM] | CC50 [13] [µM] | EC50 (Coxsackievirus [14]) [µM] | EC50 (Human alphaherpesvirus 3 [15]) [µM] | CC50 [16] [µM] | selectivity ratio [18] | EC50 (Human alphaherpesvirus 2) [µM] | selectivity ratio [19] | other results
1 | CSc1nc(NCCCCNc2ccnc3cc(Cl)ccc23)c(C#N)c(-c2cccc([N+](=O)[O-])c2)n1 | > 20 | 0.81 | > 20 | > 4 | 20 | > 4 | > 0.8 | 55.8 | > 4 | 2.1 | 100 | > 4 | > 0.8 | 9.6 | > 4 | > 0.8 | 4.2 | 19.7 | > 4 | 16 | Activity (Heme [5]): Active; Activity (Heme [7]): Active; Activity (mu-oxodimeric heme): Active; Activity (Heme [10]): Active; Ratio IC50 (Plasmodium falciparum [17]): 4; EC50 (Human alphaherpesvirus 1 [20]): > 4 µM; EC50 (Influenza A virus [21]): > 4 µM; EC50 (Human alphaherpesvirus 3 [22]): > 0.8 µM; EC50 (Influenza B virus): > 4 µM; EC50 [23]: > 4 µM; MCC [24]: 20 µM; EC50 [25]: > 20 µM; IC50 (L1210): 2.1 µM; EC50 (Human respirovirus 3): > 4 µM; IC50 (Plasmodium falciparum [26]): 68.5 nM; EC50 (Vaccinia virus): > 4 µM; EC50 (Sindbis virus): > 4 µM; MCC [27]: ≥ 4 µM; IC50 (HeLa): 1.1 µM; EC50 [28]: > 4 µM
2 | CSc1nc(NCCCCNc2ccnc3cc(Cl)ccc23)c(C#N)c(-c2ccc(C)cc2)n1 | > 20 | 4.54 | > 20 | > 4 | 20 | > 4 | > 4 | 543 | > 4 | 4.9 | 100 | > 4 | > 4 | 9.9 | > 4 | > 4 | 8.2 | 9.2 | > 4 | 41.9 | EC50 (Human alphaherpesvirus 1 [20]): > 4 µM; EC50 (Influenza A virus [21]): > 4 µM; EC50 (Human alphaherpesvirus 3 [22]): > 4 µM; EC50 (Influenza B virus): > 4 µM; EC50 [23]: > 4 µM; MCC [24]: 20 µM; EC50 [25]: > 20 µM; IC50 (L1210): 4.3 µM; EC50 (Human respirovirus 3): > 4 µM; IC50 (Plasmodium falciparum [26]): 119 nM; EC50 (Vaccinia virus): > 4 µM; EC50 (Sindbis virus): > 4 µM; MCC [27]: 20 µM; IC50 (HeLa): 5 µM; EC50 [28]: > 4 µM
3 | CSc1nc(-c2ccc([N+](=O)[O-])cc2)c(C#N)c(N2CCN(c3ccnc4cc(Cl)ccc34)CC2)n1 | > 100 | 0.8 | > 100 | > 100 | 100 | > 20 | > 100 | 9860 | > 100 | 156 | > 100 | > 100 | > 100 | > 100 | > 20 | > 100 | > 100 | 23.1 | > 100 | 18.6 | EC50 (Human alphaherpesvirus 1 [20]): > 100 µM; EC50 (Influenza A virus [21]): > 100 µM; EC50 (Human alphaherpesvirus 3 [22]): > 100 µM; EC50 (Influenza B virus): > 100 µM; EC50 [23]: > 100 µM; MCC [24]: > 100 µM; EC50 [25]: > 100 µM; IC50 (L1210): 206 µM; EC50 (Human respirovirus 3): > 20 µM; IC50 (Plasmodium falciparum [26]): 12200 nM; EC50 (Vaccinia virus): > 100 µM; EC50 (Sindbis virus): > 20 µM; MCC [27]: ≥ 100 µM; IC50 (HeLa): 228 µM; EC50 [28]: > 20 µM
